Laboratory results reported in PMC5733122, “Purification, Characterization, and Mode of Action of Pentocin JL-1, a Novel Bacteriocin Isolated from Lactobacillus pentosus, against Drug-Resistant Staphylococcus aureus” (BioMed Research International, 2017).

What was measured:
[1] = pH stability, residual antibacterial activity; assay type: physicochemical; details: 1 h; for Residual inhibitory activity (inhibition zone diameter, mm): 15 μg/mL in 0.05% acetic acid, agar-well diffusion vs MRSA GIM 1.771, mean ± SD, triplicate; for Residual inhibitory activity (inhibition zone diameter, mm) / Residual inhibitory activity (%): readjusted to pH 5.5; for Residual inhibitory activity (%): 15 μg/mL, vs MRSA GIM 1.771, relative to control pH 5.5
Experimental: To determine pH stability, lyophilized purified pentocin JL-1 was dissolved in 0.05% (w/v) acetic acid at 15 μg/mL and was adjusted with 1.0 M HCl or 1.0 M NaOH to different pH values of 2.0, 3.0, 4.0, 5.0, 6.0, 7.0, 8.0, 9.0, and 10.0. Then the above samples were incubated at 37°C for 1 h and were adjusted to pH 5.5 with 1.0 M HCl or 1.0 M NaOH.
(§1) The residual antibacterial activities of the above samples were calculated using the agar-well diffusion test with MRSA GIM 1.771 as the indicator strain. […] Lyophilized pentocin JL-1 dissolved in 0.05% (w/v) acetic acid at 15 μg/mL with pH 5.5 was used as a control in all assays.

[2] = Thermal sensitivity, residual antibacterial activity; assay type: physicochemical; details: for Residual inhibitory activity (inhibition zone diameter, mm): 15 μg/mL in 0.05% (w/v) acetic acid, agar-well diffusion vs MRSA GIM 1.771, mean ± SD, triplicate; for Residual inhibitory activity (%): 15 μg/mL in 0.05% acetic acid, vs MRSA GIM 1.771, relative to control
Experimental: To determine thermal sensitivity, lyophilized purified pentocin JL-1 dissolved in 0.05% (w/v) acetic acid at 15 μg/mL was evaluated at different temperatures (−20°C, 4°C, 30°C, 60°C, and 100°C) for 1 h and also at the autoclaved condition (121°C at 15 psi for 15 min).
as §1

[3] = biological target: T1, proteinase K (Parengyodontium album, UniProt P06873); experiment: Enzymatic sensitivity, residual antibacterial activity; assay type: in vitro ADME; details: 1 h
T1 construct: purchased Sigma-Aldrich
Experimental: […] After incubation for 1 h, the bacteriocin-enzyme mixture was boiled for 5 min to inactivate the enzymes.
as §1

[4] = test system: alkaline protease; experiment: as above; assay type: in vitro ADME; details: 1 h
Experimental: (§2) To determine enzymatic sensitivity, lyophilized purified pentocin JL-1 dissolved in 0.05% (w/v) acetic acid at 15 μg/mL was treated with the following enzymes at 75 μg/mL under their respective optimum pH and temperatures: proteinase K (pH 7.5, 37°C), trypsin (pH 8.0, 37°C), pepsin (pH 2.0, 37°C), and alkaline protease (pH 8.6, 50°C) (all from Sigma-Aldrich, USA). After incubation for 1 h, the bacteriocin-enzyme mixture was boiled for 5 min to inactivate the enzymes.
as §1

[5] = biological target: T2, pepsin (Sus scrofa, UniProt P00791); experiment: as above; assay type: in vitro ADME; details: Pepsin 75 μg/mL (pH 1.8, 37°C), 1 h, pentocin JL-1 15 μg/mL
T2 construct: purchased Sigma-Aldrich
Experimental: as §2, §1

[6] = test system: MRSA GIM 1.771 cells; experiment: Transmembrane pH gradient (ΔpH), BCECF AM fluorescence; assay type: cell-based, Staphylococcus aureus; details: 1x MIC and 2x MIC, compared with 1% Triton X-100, 400 s
Experimental: ΔpH was monitored by the fluorescent pH probe 2′,7′-bis-(2-carboxyethyl)-5-(and-6)-carboxyfluorescein, acetoxymethyl ester (BCECF AM) (Beyotime, China). MRSA GIM 1.771 cells were grown to the exponential phase in 50 mL TSB culture medium, harvested, washed twice with 50 mL 5 mM HEPES buffer at 4°C, and resuspended in 5 mL of the same buffer for incubation on ice for 1 h. Subsequently, the 1 μM BCECF AM pH probe was added and the solution was incubated at 37°C for 1 h in the dark. Then 1 mL of the incubated solution was added to a fluorescence cuvette together with a final concentration of 1x, 2x, and 3x MIC of pentocin JL-1, respectively. Acetic acid (0.05%, w/v) was used as a negative control and 1% (w/v) Triton X-100 was used as a positive control. To the control, an equivalent volume of 3x MIC of pentocin JL-1 was added. The fluorescence intensity was monitored at 50 s intervals for 400 s immediately after mixing at Ex 488 nm and Em 535 nm using an F-4600 spectrofluorometer (Hitachi, Japan).

[7] = test system: MRSA GIM 1.771; experiment: Growth curve, OD600; assay type: cell-based, Staphylococcus aureus; details: 1x MIC added after 6 h (exponential phase), TSB, 37°C, 24 h
Experimental: The bacteriostatic or bactericidal mode of action of pentocin JL-1 was tested as described previously by Zhu et al. with some modifications. MRSA GIM 1.771 was cultivated to the exponential phase in 100 mL of TSB culture medium. The lyophilized purified pentocin JL-1 dissolved in 0.05% (w/v) acetic acid was added to the cultures at a final concentration of 1x MIC and the same volume of 0.05% (w/v) acetic acid was added to the aforementioned media as a control. Samples were incubated at 37°C and bacterial suspensions were taken each hour for 24 h, and the absorbance was measured at OD600. In addition, the viable cell counts on TSB agar medium after the addition of 1x MIC, 2x MIC, and 3x MIC of pentocin JL-1 were also quantified every 10 min for 1 h.

[8] = 121°C, 15 min (autoclaved, 15 psi)

T1 sequence (P06873 106-384): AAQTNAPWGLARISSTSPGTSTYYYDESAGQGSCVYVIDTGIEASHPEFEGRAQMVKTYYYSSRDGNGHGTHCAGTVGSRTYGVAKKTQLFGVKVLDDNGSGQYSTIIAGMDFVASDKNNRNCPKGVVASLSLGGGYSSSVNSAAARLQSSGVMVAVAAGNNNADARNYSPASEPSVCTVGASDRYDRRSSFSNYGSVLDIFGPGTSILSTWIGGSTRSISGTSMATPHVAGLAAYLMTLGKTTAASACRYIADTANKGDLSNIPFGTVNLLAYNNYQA
T2 sequence (P00791 60-385): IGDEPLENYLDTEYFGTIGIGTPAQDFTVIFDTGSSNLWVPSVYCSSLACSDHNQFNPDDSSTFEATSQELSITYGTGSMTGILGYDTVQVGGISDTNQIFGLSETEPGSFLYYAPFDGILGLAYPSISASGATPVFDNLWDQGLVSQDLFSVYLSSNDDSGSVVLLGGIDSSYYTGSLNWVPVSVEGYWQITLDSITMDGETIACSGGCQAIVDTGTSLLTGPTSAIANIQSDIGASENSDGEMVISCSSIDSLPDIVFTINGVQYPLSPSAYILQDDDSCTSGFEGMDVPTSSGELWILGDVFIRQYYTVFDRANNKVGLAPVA

Substance: VAKVAR [pentocin JL-1, novel bacteriocin produced by Lactobacillus pentosus JL-1, purified by four-step chromatography, molecular mass 2987.23 Da, cationic and hydrophobic peptide]
- pH range tolerated / stable ([1]; 37°C, no significant differences in antimicrobial activity (p > 0.05)): 5–7
- Residual inhibitory activity (inhibition zone diameter, mm) ([1]; pH 2.0, 37°C): 15.7 ± 1.4 mm
- Residual inhibitory activity (%) ([1]; pH 2.0, 37°C): 65.69^∗ %
- Residual inhibitory activity (inhibition zone diameter, mm) ([1]; pH 3.0, 37°C): 16.2 ± 1.8 mm
- Residual inhibitory activity (%) ([1]; pH 3.0, 37°C): 67.78^∗ %
- Residual inhibitory activity (inhibition zone diameter, mm) ([1]; pH 4.0, 37°C): 16.8 ± 1.2 mm
- Residual inhibitory activity (%) ([1]; pH 4.0, 37°C): 70.29^∗ %
- Residual inhibitory activity (inhibition zone diameter, mm) ([1]; pH 5.0, 37°C): 23.9 ± 0.4 mm
- Residual inhibitory activity (%) ([1]; pH 5.0, 37°C): 100.00%
- Residual inhibitory activity (inhibition zone diameter, mm) ([1]; pH 6.0, 37°C): 23.9 ± 0.8 mm
- Residual inhibitory activity (%) ([1]; pH 6.0, 37°C): 100.00%
- Residual inhibitory activity (inhibition zone diameter, mm) ([1]; pH 7.0, 37°C): 23.6 ± 0.6 mm
- Residual inhibitory activity (%) ([1]; pH 7.0, 37°C): 98.74%
- Residual inhibitory activity (inhibition zone diameter, mm) ([1]; pH 8.0, 37°C): 14.6 ± 0.3 mm
- Residual inhibitory activity (%) ([1]; pH 8.0, 37°C): 61.09^∗ %
- Residual inhibitory activity (inhibition zone diameter, mm) ([1]; pH 9.0, 37°C): 12.9 ± 0.9 mm
- Residual inhibitory activity (%) ([1]; pH 9.0, 37°C): 53.97^∗ %
- Residual inhibitory activity (inhibition zone diameter, mm) ([1]; pH 10.0, 37°C): 12.5 ± 1.6 mm
- Residual inhibitory activity (%) ([1]; pH 10.0, 37°C): 52.30^∗ %
- Residual inhibitory activity (inhibition zone diameter, mm) ([2]; 4°C, 1 h): 23.8 ± 1.2 mm
- Residual inhibitory activity (%) ([2]; 4°C, 1 h): 99.58%
- Residual inhibitory activity (inhibition zone diameter, mm) ([2]; 30°C, 1 h): 23.9 ± 0.2 mm
- Residual inhibitory activity (%) ([2]; 30°C, 1 h): 100.00%
- Residual inhibitory activity (inhibition zone diameter, mm) ([2]; 60°C, 1 h): 23.6 ± 0.8 mm
- Residual inhibitory activity (%) ([2]; 60°C, 1 h): 98.74%
- Residual inhibitory activity (inhibition zone diameter, mm) ([2]; 100°C, 1 h): 22.6 ± 0.8 mm
- Residual inhibitory activity (inhibition zone diameter, mm) [2, 8]: 20.1 ± 0.9 mm
- Residual inhibitory activity (%) [2, 8]: 84.10^∗ %
- Residual inhibitory activity (inhibition zone diameter, mm) ([2]; −20°C, 1 h): 22.2 ± 1.0 mm
- Residual inhibitory activity (inhibition zone diameter, mm) ([3]; Proteinase K 75 μg/mL (pH 7.5, 55°C), then boiled 5 min, pentocin JL-1 15 μg/mL, agar-well diffusion vs MRSA GIM 1.771, mean ± SD, triplicate): 17.3 ± 1.2 mm
- Residual inhibitory activity (%) ([3]; Proteinase K 75 μg/mL (pH 7.5, 55°C), pentocin JL-1 15 μg/mL, vs MRSA GIM 1.771, relative to control): 72.38^∗ %
- inhibitory action after enzyme treatment ([3]; proteinase K 75 μg/mL, p < 0.05): significantly reduced
- Residual inhibitory activity (inhibition zone diameter, mm) ([4]; Alkaline protease 75 μg/mL (pH 8.6, 50°C), then boiled 5 min, pentocin JL-1 15 μg/mL, agar-well diffusion vs MRSA GIM 1.771, mean ± SD, triplicate): 0.0 ± 0.0 mm
- Residual inhibitory activity (%) ([4]; Alkaline protease 75 μg/mL (pH 8.6, 50°C), pentocin JL-1 15 μg/mL, vs MRSA GIM 1.771, relative to control): 0.00^∗ %
- inhibitory action after enzyme treatment ([4]; alkaline protease 75 μg/mL): completely abolished
- Residual inhibitory activity (inhibition zone diameter, mm) ([5]; then boiled 5 min, agar-well diffusion vs MRSA GIM 1.771, mean ± SD, triplicate): 0.0 ± 0.0 mm
- Residual inhibitory activity (%) ([5]; vs MRSA GIM 1.771, relative to control): 0.00^∗ %
- extent of ΔpH dissipation [6]: incompletely dissipated
- OD600 values after addition [7]: nearly stable
